Test results as given in PubChem BioAssay (NCI).
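Tested at 5 concentrations; 48 h exposure; 96-well plates; endpoints linearly interpolated, else capped at highest concentration. The concentration for full growth arrest is given as TGI.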

What was measured:
Assay in all cases: growth of human tumour cells (NCI), 48 h
[1] = tested on: COLO 205 colon
[2] = tested on: A498 renal
[3] = tested on: MALME-3M melanoma
[4] = tested on: RXF 393 renal
[5] = tested on: MCF7 breast
[6] = tested on: NCI-H460 lung
[7] = tested on: HCT-116 colon
[8] = tested on: M14 melanoma
[9] = tested on: UO-31 renal
[10] = tested on: DU-145 prostate
[11] = tested on: CCRF-CEM leukemia
[12] = tested on: BT-549 breast
[13] = tested on: HL-60(TB) leukemia
[14] = tested on: EKVX NSCLC
[15] = tested on: HCC-2998 colon
[16] = tested on: MOLT-4 leukemia
[17] = tested on: TK-10 renal
[18] = tested on: MDA-N
[19] = tested on: LOX IMVI melanoma
[20] = tested on: ACHN renal
[21] = tested on: NCI-H226 lung
[22] = tested on: UACC-257 melanoma
[23] = tested on: OVCAR-4 ovarian
[24] = tested on: SK-MEL-5 melanoma
[25] = tested on: SNB-75 CNS
[26] = tested on: HOP-62 NSCLC
[27] = tested on: HT29 colon
[28] = tested on: SK-MEL-2 melanoma
[29] = tested on: HCT-15 colon
[30] = tested on: NCI-H522 lung
[31] = tested on: SR leukemia
[32] = tested on: CAKI-1 renal
[33] = tested on: OVCAR-8 ovarian
[34] = tested on: OVCAR-3 ovarian
[35] = tested on: KM12 colon
[36] = tested on: T-47D breast
[37] = tested on: K-562 leukemia
[38] = tested on: SK-OV-3 ovarian
[39] = tested on: HOP-92 NSCLC
[40] = tested on: HS 578T breast
[41] = tested on: 786-0 renal
[42] = tested on: PC-3 prostate
[43] = tested on: UACC-62 melanoma
[44] = tested on: RPMI-8226 leukemia
[45] = tested on: MDA-MB-231 breast
[46] = tested on: IGROV1 ovarian
[47] = tested on: U251 CNS
[48] = tested on: NCI/ADR-RES ovarian
[49] = tested on: SF-295 CNS
[50] = tested on: SNB-19 CNS
[51] = tested on: SK-MEL-28 melanoma
[52] = tested on: A549 NSCLC
[53] = tested on: SN12C renal
[54] = tested on: SW-620 colon
[55] = tested on: SF-268 CNS
[56] = tested on: MDA-MB-435
[57] = tested on: SF-539 CNS
[58] = tested on: OVCAR-5 ovarian
[59] = tested on: NCI-H23 lung

## Cc1ccc(C(=O)C(Cl)C(Cl)c2ccc(C)cc2)cc1 (stereo unspecified)
[1]
  TGI: 4.1 µM
[2]
  TGI: 30 µM
[3]
  TGI: 32.1 µM
[4]
  TGI: 23.4 µM
[5]
  TGI: 18.6 µM
[6]
  TGI: 22.3 µM
[7]
  TGI: 4 µM
[8]
  TGI: 35.5 µM
[9]
  TGI: 3.73 µM
[10]
  TGI: 15.3 µM
[11]
  TGI: 4.28 µM
[12]
  TGI: 9.2 µM
[13]
  TGI: 10 µM
[14]
  TGI: 19.5 µM
[15]
  TGI: 3.92 µM
[16]
  TGI: 6.67 µM
[17]
  TGI: 8.13 µM
[18]
  TGI: 6.18 µM
[19]
  TGI: 3.78 µM
[20]
  TGI: 3.13 µM
[21]
  TGI: 11.4 µM
[22]
  TGI: 4.48 µM
[23]
  TGI: 5.04 µM
[24]
  TGI: 6.68 µM
[25]
  TGI: 23 µM
[26]
  TGI: 45.4 µM
[27]
  TGI: 4.31 µM
[28]
  TGI: 36.2 µM
[29]
  TGI: 3.73 µM
[30]
  TGI: 10.7 µM
[31]
  TGI: 6.68 µM
[32]
  TGI: 5.53 µM
[33]
  TGI: 7.7 µM
[34]
  TGI: 11.2 µM
[35]
  TGI: 13.9 µM
[36]
  TGI: 4.86 µM
[37]
  TGI: 7.15 µM
[38]
  TGI: 30.7 µM
[39]
  TGI: 5.24 µM
[40]
  TGI: 76.3 µM
[41]
  TGI: 4.61 µM
[42]
  TGI: 18.4 µM
[43]
  TGI: 10.9 µM
[44]
  TGI: 7.25 µM
[45]
  TGI: 16.1 µM
[46]
  TGI: 6.34 µM
[47]
  TGI: 12.4 µM
[48]
  TGI: 6.15 µM
[49]
  TGI: 23.7 µM
[50]
  TGI: 23.3 µM
[51]
  TGI: 8.68 µM
[52]
  TGI: > 91.8 µM
[53]
  TGI: 3.88 µM
[54]
  TGI: 6.32 µM
[55]
  TGI: 21.2 µM
[56]
  TGI: 10.8 µM
[57]
  TGI: 6.38 µM
[58]
  TGI: 33 µM
[59]
  TGI: 23.9 µM

## C/C(=N/O)c1cccc(Nc2nc3ccc(Cl)cc3c3[nH]c4ccccc4c23)c1
[1]
  TGI: 4.15 µM
[4]
  TGI: 3.27 µM
[5]
  TGI: 2.75 µM
[6]
  TGI: 4.29 µM
[7]
  TGI: 2.66 µM
[8]
  TGI: 3.54 µM
[9]
  TGI: 8.86 µM
[10]
  TGI: 4.41 µM
[12]
  TGI: 11.6 µM
[13]
  TGI: 6.78 µM
[16]
  TGI: 5.97 µM
[17]
  TGI: 6.51 µM
[18]
  TGI: 4.05 µM
[19]
  TGI: 5.73 µM
[20]
  TGI: 4.5 µM
[21]
  TGI: 9.82 µM
[22]
  TGI: 12.1 µM
[23]
  TGI: 4.82 µM
[24]
  TGI: 2.56 µM
[25]
  TGI: 3.36 µM
[26]
  TGI: 6.99 µM
[27]
  TGI: 5.36 µM
[28]
  TGI: 3.88 µM
[29]
  TGI: 5.03 µM
[30]
  TGI: 3.26 µM
[31]
  TGI: > 100 µM
[32]
  TGI: 6.11 µM
[33]
  TGI: 7.77 µM
[34]
  TGI: 4.65 µM
[35]
  TGI: 3.79 µM
[36]
  TGI: 3.5 µM
[37]
  TGI: > 100 µM
[38]
  TGI: 13.6 µM
[40]
  TGI: 7.09 µM
[41]
  TGI: 5.22 µM
[42]
  TGI: 4.7 µM
[43]
  TGI: 3.94 µM
[44]
  TGI: 3.52 µM
[45]
  TGI: 9.32 µM
[46]
  TGI: 11.5 µM
[47]
  TGI: 9.94 µM
[48]
  TGI: 6.26 µM
[49]
  TGI: 4.32 µM
[50]
  TGI: 12 µM
[51]
  TGI: 5.25 µM
[52]
  TGI: 5.13 µM
[53]
  TGI: 9.53 µM
[54]
  TGI: 5.03 µM
[55]
  TGI: 5.15 µM
[56]
  TGI: 3.99 µM
[57]
  TGI: 12.3 µM
[58]
  TGI: 6.83 µM
[59]
  TGI: 4.24 µM

## CCC1=CC2Cc3nc4cc(Cl)ccc4c(N)c3C(C1)C2 (stereo unspecified)
[1]
  TGI: 7.11 µM
[2]
  TGI: 17.3 µM
[3]
  TGI: 9.46 µM
[4]
  TGI: 8.15 µM
[5]
  TGI: 17.6 µM
[6]
  TGI: 18.5 µM
[7]
  TGI: 9.77 µM
[8]
  TGI: 3.16 µM
[9]
  TGI: 20.6 µM
[10]
  TGI: 28.9 µM
[11]
  TGI: 15.9 µM
[12]
  TGI: 35.4 µM
[13]
  TGI: 7.42 µM
[14]
  TGI: 11.6 µM
[15]
  TGI: 3.69 µM
[16]
  TGI: 3.28 µM
[17]
  TGI: 13.6 µM
[18]
  TGI: 18 µM
[19]
  TGI: 19.2 µM
[20]
  TGI: 26.7 µM
[21]
  TGI: 5.73 µM
[22]
  TGI: 4.72 µM
[23]
  TGI: 17.2 µM
[24]
  TGI: 4.05 µM
[25]
  TGI: 18.5 µM
[26]
  TGI: 22.5 µM
[27]
  TGI: 10.8 µM
[28]
  TGI: 21.2 µM
[29]
  TGI: > 37.7 µM
[30]
  TGI: 16.1 µM
[32]
  TGI: 8.38 µM
[33]
  TGI: > 49.9 µM
[34]
  TGI: 21.9 µM
[35]
  TGI: 19.5 µM
[36]
  TGI: 7.3 µM
[37]
  TGI: 7.57 µM
[38]
  TGI: 25.9 µM
[39]
  TGI: 6.48 µM
[40]
  TGI: 13.1 µM
[41]
  TGI: 11.9 µM
[42]
  TGI: 18.4 µM
[43]
  TGI: 18.4 µM
[44]
  TGI: 5.79 µM
[45]
  TGI: 18.9 µM
[46]
  TGI: 20.7 µM
[47]
  TGI: 25.3 µM
[48]
  TGI: 27.6 µM
[49]
  TGI: 12.2 µM
[50]
  TGI: 22.7 µM
[51]
  TGI: 7.5 µM
[52]
  TGI: 30.8 µM
[53]
  TGI: 28.2 µM
[54]
  TGI: 36 µM
[55]
  TGI: 16.9 µM
[56]
  TGI: 8.74 µM
[57]
  TGI: 28.8 µM
[58]
  TGI: 15.4 µM
[59]
  TGI: 17.3 µM

## C=C(C)CN(CC#N)CC(=C)C
[1]
  TGI: > 100 µM
[2]
  TGI: > 100 µM
[3]
  TGI: > 100 µM
[4]
  TGI: > 100 µM
[5]
  TGI: > 100 µM
[7]
  TGI: > 100 µM
[8]
  TGI: > 100 µM
[9]
  TGI: > 100 µM
[10]
  TGI: > 100 µM
[11]
  TGI: > 100 µM
[12]
  TGI: > 100 µM
[13]
  TGI: > 100 µM
[14]
  TGI: > 100 µM
[15]
  TGI: > 100 µM
[16]
  TGI: > 100 µM
[17]
  TGI: > 100 µM
[18]
  TGI: > 100 µM
[19]
  TGI: > 100 µM
[20]
  TGI: > 100 µM
[21]
  TGI: > 100 µM
[22]
  TGI: > 100 µM
[23]
  TGI: > 100 µM
[24]
  TGI: > 100 µM
[25]
  TGI: > 100 µM
[26]
  TGI: > 100 µM
[27]
  TGI: > 100 µM
[28]
  TGI: > 100 µM
[29]
  TGI: > 100 µM
[30]
  TGI: > 100 µM
[31]
  TGI: > 100 µM
[32]
  TGI: > 100 µM
[33]
  TGI: > 100 µM
[34]
  TGI: > 100 µM
[35]
  TGI: > 100 µM
[36]
  TGI: > 100 µM
[37]
  TGI: > 100 µM
[38]
  TGI: > 100 µM
[40]
  TGI: > 100 µM
[41]
  TGI: > 100 µM
[42]
  TGI: > 100 µM
[43]
  TGI: > 100 µM
[44]
  TGI: > 100 µM
[45]
  TGI: > 100 µM
[46]
  TGI: > 100 µM
[47]
  TGI: > 100 µM
[48]
  TGI: > 100 µM
[49]
  TGI: > 100 µM
[50]
  TGI: > 100 µM
[51]
  TGI: > 100 µM
[52]
  TGI: > 100 µM
[53]
  TGI: > 100 µM
[54]
  TGI: > 100 µM
[55]
  TGI: > 100 µM
[56]
  TGI: > 100 µM
[58]
  TGI: > 100 µM
[59]
  TGI: > 100 µM
